Experimental data reported in patent publication US12508243B2, “Compositions and methods for treating cancer and improving epithelial homeostasis” (The Regents of the University of California, priority 2019, dated 2025).
Entries after “also recorded” stand apart in the source; their conditions may differ.

Columns and labels:
mouse ABSCs (mABSCs) [1] = assay: EdU proliferation assay in mouse ABSCs, submerged culture; format: cell-based; settings: submerged culture 4 days; for mABSC proliferation (EdU incorporation): 1 μM CHIR + 1 μM inhibitor
Procedure: Mouse and human ABSCs were isolated following a previously published method. Briefly, mouse tracheas were dissected, cleaned, and incubated in 16 U/mL dispase for 30 minutes (1 hour for human) at room temperature. Tracheas were then incubated in 0.5 mg/mL DNase for another 30 minutes (1 hour for human) at room temperature. Epithelium was stripped and incubated in 0.1% Trypsin-EDTA for 30 minutes (1 hour for human) shaking at 37° C. to generate a single cell suspension. Isolated cells were passed through a 40 μm strainer and stained with fluorophore-conjugated antibodies against ITGA6 and TROP2. ITGA6+ TROP2+ cells were obtained via FACS that was completed using the BD FACSAria cell sorter.
In vitro proliferation was studied using the Click-iT EdU incorporation assay kit (Invitrogen C10337) following the company's protocol. Briefly, mouse and human AB SC cultures were treated with 10 μM EdU 6-8 hours prior to commencing IFs. Cells were fixed with […] for 15 minutes followed by permeabilization in 0.5% Triton-X for 20 minutes. EdU cocktail was incubated for 30 minutes in darkness followed by immunocytochemistry.
(§1) To determine whether the pathobiology observed in human patients can be modeled in vitro, mouse ABSCs (mABSCs) were treated with GSK3β inhibitor CHIR99021 (CHIR) under submerged culture conditions for 4 days to activate canonical Wnt signaling (FIG. 2A).

BEAS2B cells = assay: Cell Titer Glo toxicity assay in BEAS2B cells; format: cell-based, human; settings: various concentrations
Procedure: (§2) For luciferase reporter assays conducted outside of the high-throughput drug screen, BEAS2B cells were seeded in a 96-well plate at 20,000 cells per well. The following day, cells were with treated DMSO, 5 μM CHIR99021 (CHIR; Tocris 4423), or 5 μM CHIR plus WIC2 (Key Organics GP-0355), Coumarin (Sigma C4261), or WIC1 for 24 hours. Lysis reactions were conducted using BrightGlo (Promega E1910) and incubated for two minutes at room temperature prior to transferring luminescence reactions to white-bottom, white-walled 96-well plates (Costar). Toxicity assays were conducted by adding Cell Titer Glo reagent (Promega) following manufacturer's protocol. Luminescence readings were conducted using the Clariostar plate reader.

mouse ABSCs (mABSCs) [2] = assay: Air-liquid interface (ALI) differentiation assay with mouse ABSCs; format: cell-based
Procedure: (§3) 24-well 6.5 mm transwells with 0.4 μm pore polyester membrane inserts were coated with 0.2 mg/mL collagen type I dissolved in 60% ethanol and allowed to air dry. ABSCs were seeded at 100,000 cells per well and allowed to grow in the submerged phase of culture for 4-5 days with 500 μl media in the basal chamber and 200 μl media in the apical chamber. ALI cultures were then established and culture with only 500 μl media in the basal chamber, and cultures harvested at varying timepoints for immunofluorescence studies. Media was changed every other day and cultures were maintained at 37° C. and 5% C02. ABSCs were treated with the indicated concentrations of GSK3XV (Sigma 361558), CHIR or WIC1.
Mouse ABSCs were grown in MTEC Plus media and MTEC serum-free media during the submerged and ALI phases of culture, respectively. MTEC base media is DMEM/Ham's F12 50/50 (Corning 15090CV). Table S1 and Table S2 indicate the media components and concentrations for MTEC Plus and MTEC serum-free media, respectively.
Mouse and human ABSCs were fixed in […] for 15 minutes followed by permeabilization with 0.50% Triton-X for 10 minutes. Cells were blocked using serum-free protein block (Dako X090930) for one hour at room temperature and overnight primary antibody incubation. Secondary antibodies were incubated for 1 hour in darkness, washed, and mounted using Vectashield hardest mounting medium with DAPI (Vector Labs H-1500). IF images were obtained using an LSM780 or LSM880 Zeiss confocal microscope and composite images generated using Fiji. […]

[3] = test system: TCF/LEF luciferase reporter; assay: TCF/LEF luciferase reporter assay in transduced BEAS2B cells (CHIR-induced); format: cell-based, human; settings: 10 nM, WIC1, MSAB, LF3, ICG001 compared
Procedure: BEAS2B cells (ATCC CRL-9609) were seeded in a 6-well plate and infected with Cignal lentiviral particles containing a TCF/LEF luciferase reporter (Qiagen CLS-018L). Cells were spin infected at 37° C. for one hour using a multiplicity of infection of 20. Cells were selected with 0.6 μg/mL puromycin to isolate stably expressing clones.
as §2
In light of the finding that Wnt/β-catenin signaling drives ABSC hyperproliferation, a small molecule inhibitors of the pathway that could restore airway homeostasis. A high-throughput drug screen was established to identify compounds capable of reducing TCF/LEF activity measured by a luciferase reporter induced by CHIR treatment in a 384-well format (FIG. 3A). Briefly, white-bottom 384-well plates (Greiner One) were precoated overnight with 0.01 mg/mL fibronectin from human plasma (Sigma F0895), 0.03 mg/mL rat tail collagen type I (Corning 354249), and 0.01 mg/mL BSA (ThermoFisher BP-9706) diluted in 50 uL of Airway Epithelial Cell Growth Medium (PromoCell C21060). Precoat was then aspirated and washed using 100 μL the BioTek EL406. A custom V&P pin tool mounted to a Beckman FX liquid handler was then used to pin […] of 10 mM stock compound. 2,000 BEAS2B cells per well were then seeded using the Multidrop. Cells were therefore treated with 1% DMSO, 5 μM CHIR, or 5 μM CHIR+10 μM pinned compound and incubated for 24 hours at 37° C. and 5% CO2. […] 25 μL BrightGlo (Promega) was subsequently added to each well using the BioTek EL405 and incubated for 2 minutes prior reading luminescence values with the Envision plate reader (FIG. 3B). […] Z′ factor values were used to assess assay quality and was calculated by: Z′=1-3(SD Total+SDBackground)/(MeanTotal−MeanBackground) where SDTotal and MeanTotal are the standard deviation and mean of signal for CHIR-treated wells, and SDBackground and MeanBackground are the standard deviation and mean of signal for DMSO-treated wells. The Z′ factor value was calculated to be 0.82.

Trp63 = Trp63 expression with CHIR and WIC1 treatment (FIG. 4F); format: cell-based; settings: CHIR treatment
Procedure: (§4) RNA was isolated with the RNeasy Mini Kit (Qiagen 74104) following manufacturer's protocol and quantified using a NanoDrop Spectrophotometer (ThermoFisher). cDNA synthesis was performed using the TaqMan Reverse Transcription Reagents (ThermoFisher) as indicated by the company. qPCR was then performed using the TaqMan PCR Master Mix (Applied Biosystems) on the StepOne-Plus Real Time PCR System.

human ABSCs = assay: Air-liquid interface (ALI) differentiation assay with human ABSCs; format: cell-based; settings: human ABSCs, treated for 21 days
Procedure: as §3
(§5) Mouse and human ABSCs were fixed in […] for 15 minutes followed by permeabilization with 0.50% Triton-X for 10 minutes. Cells were blocked using serum-free protein block (Dako X090930) for one hour at room temperature and overnight primary antibody incubation. Secondary antibodies were incubated for 1 hour in darkness, washed, and mounted using Vectashield hardest mounting medium with DAPI (Vector Labs H-1500). IF images were obtained using an LSM780 or LSM880 Zeiss confocal microscope and composite images generated using Fiji.
To assess whether WIC1 could reverse Wnt/β-catenin-induced ABSC hyperproliferation, human ABSCs were treated with either DMSO, CHIR, or CHIR+WIC1. […] It was then sought to determine if WIC1 could promote ABSC differentiation to ciliated cells under ALI conditions.

p-β-catenin^Y489 = assay: Immunofluorescence staining of phosphorylated β-catenin localization in ABSCs; format: cell-based, mouse
Procedure: as §5, §1

TP63 = assay: qRT-PCR of TP63 expression in BEAS2B cells; format: cell-based, human; settings: addition of CHIR
Procedure: as §4

[4] = test system: TCF/LEF luciferase reporter; assay: TCF/LEF (TOPFLASH) luciferase reporter in mABSCs; format: cell-based, mouse; settings: vs DMSO-treated cultures
Procedure: mABSCs were seeded in a 6-well transwell plate and transiently transfected with […] of the TOPFLASH luciferase reporter and […] Renilla Luciferase reporter vector pRL-TK for internal control (Promega). Transfections were conducted using Lipofectamine 2000 Transfection Reagent (ThermoFisher 11668030) following the manufacturer's protocol.
as §1

[5] = mABSCs, ALI, 100 nM inhibitor vs DMSO
[6] = mABSCs, ALI, 1 μM inhibitor vs DMSO
[7] = mABSCs, ALI, GSK3β inhibitor vs DMSO

O=C1[C@H](Cc2ccc(O)cc2)N2C(=O)CCN(C(=O)NCc3ccccc3)[C@H]2CN1Cc1cccc2ccccc12 [ICG001] was tested, and the “mABSC proliferation (EdU incorporation)” value (mouse ABSCs (mABSCs) [1]) was “decreased mABSC proliferation to a similar degree”, the “Toxicity by Cell Titer Glo” value (BEAS2B cells) was “dose dependent toxicity” and the “Proportion of ciliated cells” value (mouse ABSCs (mABSCs) [2]; [5]) was “induced a greater proportion of ciliated cells”. For the same molecule, the “Percentage of ciliated cells” value (mouse ABSCs (mABSCs) [2]; [6]) was “no effect on the percentage of ciliated cells”.

COC(=O)c1cccc(NS(=O)(=O)c2ccc(C)cc2)c1 [MSAB] was tested, and the “mABSC proliferation (EdU incorporation)” value (mouse ABSCs (mABSCs) [1]) was “decreased mABSC proliferation to a similar degree”, the “Toxicity by Cell Titer Glo” value (BEAS2B cells) was “dose dependent toxicity” and the “Proportion of ciliated cells” value (mouse ABSCs (mABSCs) [2]; [5]) was “neither 100 nM nor 1 μM MSAB increased differentiation to the ciliated cell fate”. For the same molecule, the “Percentage of ciliated cells” value (mouse ABSCs (mABSCs) [2]; [6]) was “neither 100 nM nor 1 μM MSAB increased differentiation to the ciliated cell fate” and the “TCF/LEF activity, inhibitor comparison” value [3] was “only inhibitor that decreased TCF/LEF activity at 10 nM”.

With Cc1c[nH]c(-c2cnc(NCCNc3ccc(C#N)cn3)nc2-c2ccc(Cl)cc2Cl)n1 [CHIR, CHIR99021] the “mABSC proliferation (EdU)” value (mouse ABSCs (mABSCs) [1]; compound alone vs DMSO) was “statistically significant increase in proliferation; also recorded: statistically significant increased proliferation”, the Trp63 expression (Trp63) was “induction of Trp63 expression” and the “Percentage of ciliated cells” value (mouse ABSCs (mABSCs) [2]; [7]) was “significant reduction in the percentage of ciliated cells”. The “Pool of K5+ mABSCs” value (mouse ABSCs (mABSCs) [2]; [7]) was “increased pool of K5+ mABSCs”, the ABSC morphology (mouse ABSCs (mABSCs) [2]; mABSCs, ALI, vs DMSO) was “clumping morphology reminiscent of PMLs; also recorded: dose-dependent heaping morphology that resembles the PMLs” and the “Differentiation to the ciliated cell fate” value (human ABSCs) was “abolished differentiation to the cilated cell fate”. The “Pool of ABSCs” value (human ABSCs) was “increased pool for ABSCs”, the “Nuclear p-β-catenin^Y489” value (p-β-catenin^Y489; compound alone vs DMSO) was “increase in nuclear p-β-cateninY489; also recorded: increased nuclear p-β-catenin^Y489; also recorded: induced nuclear localization of p-β-catenin^Y489” and the “Localization of other phosphorylated forms of β-catenin (Y654, S552, S33,S37,T41)” value (p-β-catenin^Y489; mouse ABSCs, submerged phase of culture) was “remained primarily cytoplasmic or membranous”. The TP63 expression (TP63) was “increase in TP63 expression”.

B1: Wnt3A: recombinant Wnt3A protein used to raise Wnt signaling (protein, UniProt P56704 19-352, looked up)
Protein Wnt-3a: SYPIWWSLAVGPQYSSLGSQPILCASIPGLVPKQLRFCRNYVEIMPSVAEGIKIGIQECQHQFRGRRWNCTTVHDSLAIFGPVLDKATRESAFVHAIASAGVAFAVTRSCAEGTAAICGCSSRHQGSPGKGWKWGGCSEDIEFGGMVSREFADARENRPDARSAMNRHNNEAGRQAIASHMHLKCKCHGLSGSCEVKTCWWSQPDFRAIGDFLKDKYDSASEMVVEKHRESRGWVETLRPRYTYFKVPTERDLVYYEASPNFCEPNPETGSFGTRDRTCNVSSHGIDGCDLLCCGRGHNARAERRREKCRCVFHWCCYVSCQECTRVYDVHTCK
For B1, the “TCF/LEF activity measured by a luciferase reporter” value [4] was “increased TCF/LEF activity”, the “Proportion of ciliated cells” value (mouse ABSCs (mABSCs) [2]; ALI conditions, 100 ng/mL) was “increased the proportion of ciliated cells” and the “K5+ mABSCs” value (mouse ABSCs (mABSCs) [2]; ALI conditions, 500 ng/mL) was “K5+ mABSC expansion”. The “Proportion of ciliated cells” value (mouse ABSCs (mABSCs) [2]; ALI conditions, 500 ng/mL) was “produced fewer ciliated cells”.
